PMC5447729 (Frontiers in Pharmacology, 2017)
Where two headings read alike, the source gives them in different places.

Assays:
db/db mice = experiment: Three-week oral treatment of diabetic db/db mice (FBG, ITT, serum parameters, organ indices); format: in vivo
Description: All animal experiments were performed according to procedures approved by the Animal Experimentation Ethics Committee of the Beijing Institute of Pharmacology and Toxicology for animal care, handling and termination. Eight-week-old male homozygous C57BLKS/J db/db mice were obtained from the Model Animal Research Centre of Nanjing University (Nanjing, China) and fed a standard mouse diet. Male C57BL/6 mice (4 weeks old) were obtained from the Laboratory Animal Centre of the Beijing Institute of Pharmacology and Toxicology and fed a high-fat, high-sugar diet for 16 weeks to induce diet-induced obesity (DIO). […] Body weight (BW) and fasting blood glucose were recorded regularly during the treatment period. […] Blood glucose was monitored at 0, 30, 60, 90, and 120 min after the oral administration of 1 g kg^−1 dextrose. […]
(§1) Serum triglyceride (TG), cholesterol, free fatty acid (FFA), and glucose levels were measured by using commercial kits (Nanjing Jiancheng Bioengineering Institute, Nanjing, China) according to the manufacturer's instructions. Serum adiponectin, monocyte chemotactic protein 1(MCP1), Interleukin-6 (IL-6), Receptor activator of nuclear factor kappa-B ligand (RANKL), and Adrenocorticotropic Hormone (ACTH) were quantified using a multiplex Luminex assay (Millipore/Linco Research).

PPARγ target genes = experiment: Real-time PCR gene expression in tissues of treated DIO and db/db mice; format: in vivo; conditions: for expression of BAT marker genes (Ucp1, Cidea, Elove3, Cox7a, Cox8b) and adipogenesis and lipogenesis genes (aP2, adiponectin, Lpl, Cd36) in BAT: more pronounced in the INT131 group; for expression of adipogenesis and fatty acid metabolism genes in sWAT and eWAT / levels of macrophage markers Cd68 and F4/80, pro-inflammatory cytokines IL-6 and TNFα and chemokine Mcp1 / Ucp1, Elove3 and aP2 gene expression in skeletal muscle: DIO and db/db mice; for expression of adipogenesis and fatty acid metabolism genes in sWAT and eWAT / levels of macrophage markers Cd68 and F4/80, pro-inflammatory cytokines IL-6 and TNFα and chemokine Mcp1: sWAT and eWAT
Description: Total RNA was isolated from tissues with a High-Purity Total RNA Extraction Kit (BioTeke Corporation, Beijing, China) according to the manufacturer's instructions. RNA was reverse-transcribed into cDNA with a High Capacity cDNA Reverse Transcription Kit (Transgenes Corporation, Beijing, China). Real-time PCR was carried out on an ABI 7300 Real-time PCR System (Applied Biosystems, Foster City, CA, USA) using SYBR Green PCR Master Mix (Roche Molecular Biochemicals, Mannheim, Germany). Relative gene expression levels were normalized to the β-actin gene and quantified by using the 2^−ΔΔCt method. Primer sequences are listed in (Supplementary Table 1).

[1] = test system: mouse 3T3-L1 preadipocytes; experiment: Differentiation of mouse 3T3-L1 preadipocytes; format: cell-based; conditions: we and others (Motani et al., 2009)
PRDM16 = experiment: Western blot of PRDM16 protein in sWAT of treated mice; format: in vivo; conditions: DIO and db/db mice
Description: To obtain tissue lysates, eWAT and sWAT were homogenized in 10% sodium dodecyl sulfate buffer containing protease and phosphatase inhibitors. An antibody targeting PR domain containing 16 (PRDM16) (Abcam) was used for western blotting. Bands were detected with ECL enhanced chemiluminescence detection reagents (Applygen, Beijing, China) and scanned with an Alpha Imager 5500 (Alpha Innotech, San Leandro, CA, USA) imaging densitometer.

C2C12 cells = experiment: Conversion of myogenic C2C12 cells to adipocytes (gene expression); format: cell-based; conditions: 10 μM for 5 d after confluence, in the same manner as RSG
[2] = RSG and INT131 concentrations in plasma and tissue after a single oral dose (UHPLC-MS/MS); format: in vivo, DIO mice; conditions: for Tmax: C57BL/6, mouse, po, 30 mg/kg, read-out: time of peak concentration; for average residency time: blood concentration-time profile, pre-test, single oral gavage RSG 10 mg kg−1 or INT131 30 mg kg−1
DIO mice = experiment: Three-week oral treatment of insulin-resistant DIO mice (OGTT, FBG, serum factors, organ indices, liver lipids, histology); format: in vivo; conditions: for body weight and WAT: RSG 10 mg kg−1, INT131 30 mg kg−1; for serum adiponectin / serum pro-inflammatory cytokines MCP-1 and IL-6: multiplex detection; for morphology of hepatocyte and hepatic lipid content: vs vehicle-treated
Description: All animal experiments were performed according to procedures approved by the Animal Experimentation Ethics Committee of the Beijing Institute of Pharmacology and Toxicology for animal care, handling and termination. Eight-week-old male homozygous C57BLKS/J db/db mice were obtained from the Model Animal Research Centre of Nanjing University (Nanjing, China) and fed a standard mouse diet. Male C57BL/6 mice (4 weeks old) were obtained from the Laboratory Animal Centre of the Beijing Institute of Pharmacology and Toxicology and fed a high-fat, high-sugar diet for 16 weeks to induce diet-induced obesity (DIO). […] Compounds were dissolved in DMSO and suspended in 0.5% carboxymethylcellulose. Body weight (BW) and fasting blood glucose were recorded regularly during the treatment period. After 14 d of treatment, db/db mice were subjected to insulin tolerance tests (ITT) and fasted for 6 h prior to the intraperitoneal (i.p.) injection of 1 U kg^−1 insulin, and blood glucose was estimated at the indicated time points. […] Blood glucose was monitored at 0, 30, 60, 90, and 120 min after the oral administration of 1 g kg^−1 dextrose. […] Interscapular brown adipose tissue (iBAT), epididymal white adipose tissue (eWAT), subcutaneous inguinal white adipose tissue (sWAT), liver and skeletal muscle were excised, weighed and rapidly frozen in liquid nitrogen for subsequent gene expression and western blot analysis.
as §1
To determine TG and total cholesterol levels in the liver, 50 mg of frozen tissue was homogenized with a TissueLyserII (Qiagen, Germantown, MD, USA) in 1 ml of chloroform/methanol (2:1, v/v), after which 200 μL of 0.05 M KCl was added, and the solution was centrifuged at 5,000 rpm for 10 min. The aqueous phase was removed, and the organic phase was filtered and dried by nitrogen flushing. After evaporation of the chloroform under nitrogen, lipid samples were resuspended in isopropyl alcohol, and TG and total cholesterol content were determined with enzymatic assays.
sWAT, iBAT, and liver samples were fixed, embedded in paraffin and sectioned. Sections were cut at a thickness of […] and stained with haematoxylin/eosin (HE). Liver sections as well as adipose sections from at least 3 mice per group were also stained with HE. Adipocyte (n = 100 adipocytes) diameter was measured using Image J software, and the average diameter was recorded for each animal.

[3] = test system: diabetic Zucker (fa/fa) fatty rats; parameters: method as in prior studies in rodents; conditions: 3 mg kg−1 day−1 INT131 vs 1 mg kg−1 RSG, ref prior studies in rodents; cited from earlier work
[4] = all assayed tissues, DIO mice, RSG 10 mg kg−1 oral

| Compound | expression of BAT marker genes (Ucp1, Cidea, Elove3, Cox7a, Cox8b) and adipogenesis and lipogenesis genes (aP2, adiponectin, Lpl, Cd36) in BAT (PPARγ target genes; DIO mice) | expression of adipogenesis and fatty acid metabolism genes in sWAT and eWAT (PPARγ target genes) | levels of macrophage markers Cd68 and F4/80, pro-inflammatory cytokines IL-6 and TNFα and chemokine Mcp1 (PPARγ target genes) | Ucp1, Elove3 and aP2 gene expression in skeletal muscle (PPARγ target genes) | PRDM16 protein levels in sWAT (PRDM16) | average residency time [2] | body weight and WAT (DIO mice) | serum adiponectin (DIO mice) | serum pro-inflammatory cytokines MCP-1 and IL-6 (DIO mice) | sizes of expanded adipocytes in the sWAT (DIO mice; HE staining) | morphology of hepatocyte and hepatic lipid content (DIO mice) | further results |
| --- | --- | --- | --- | --- | --- | --- | --- | --- | --- | --- | --- | --- |
| O=S(=O)(Nc1cc(Cl)c(Oc2cnc3ccccc3c2)c(Cl)c1)c1ccc(Cl)cc1Cl [INT131, 2,4-dichloro-N-[3,5-dichloro-4-(quinolin-3-yloxy)phenyl] benzene sulfonamide] | substantially up-regulation | similarly up-regulated | comparably reduced | enhanced | markedly increased | 4.4 ± 1.17 h | no impact | equal elevation | decreased levels | markedly decreased | no impact | body weight gain compared with RSG (db/db mice; 10 and 30 mg kg−1 INT131 vs 10 mg kg−1 RSG): equal body weight gains; fasting blood glucose (FBG) (db/db mice; INT131 10 or 30 mg kg−1 by gavage once daily, within 1 week of treatment): lowered fasting blood glucose (FBG) in a dose-dependent manner; Cd36 expression in the liver (PPARγ target genes; liver, DIO mice): only slightly induced an increase; expression of aP2, adiponectin and cidec in the liver (PPARγ target genes; liver, DIO mice): did not induce; induction of adipsin and cidea in the liver compared with RSG (PPARγ target genes; liver, DIO mice): to a lesser degree; promoting the differentiation of preadipocytes, compared with RSG [1]: weaker effects; switch of myogenic cells to adipocytes (adipogenesis and myogenesis gene expression) (C2C12 cells): able to switch myogenic cells to adipocytes; Tmax ([2]; plasma and liver): 0.5 h; Tmax ([2]; skeletal muscle, eWAT, sWAT, BAT): 4 h; hepatic weight (DIO mice; 30 mg kg−1 INT131): did not induce an increase; brown adipocyte hypertrophy (adipocyte size and area in BAT) (DIO mice; BAT, HE staining): more severe brown adipocyte hypertrophy; blood glucose lowering effects compared with RSG [3]: identical |
| CN(CCOc1ccc(CC2SC(=O)NC2=O)cc1)c1ccccn1 (stereo not shown) [RSG, 5-[[4-[2-[methyl(pyridin-2-yl)amino]ethoxy]phenyl]methyl]-1,3-thiazolidine-2,4-dione] | substantially up-regulation | similarly up-regulated | comparably reduced | enhanced | markedly increased | 4.03 ± 0.83 h | no impact | equal elevation | decreased levels | markedly decreased | dramatically aggravated hepatic hypertrophy and increased lipid accumulation | expression of adipocyte-specific genes aP2, adipsin, adiponectin, cidea and cidec in the liver (PPARγ target genes; liver, DIO mice): robustly up-regulated; expression of genes of lipogenesis (Acc) and fatty acid uptake (Cd36) in the liver (PPARγ target genes; liver, DIO mice): dramatically stimulated; expression of the key gluconeogenesis gene (Pepck) in the liver (PPARγ target genes; liver, DIO mice): inhibited; expression of fatty acid oxidation genes Cpt1b and Pdk4 in the liver (PPARγ target genes; liver, DIO mice, RSG rather than INT131): marked up-regulation; time of peak concentration (Cmax) [2, 4]: 0.5 h; tissue concentration by 12 h [2, 4]: almost negligible |
